Assay results from article PMC10828251, “A novel PSMA-targeting tracer with highly negatively charged linker demonstrates decreased salivary gland uptake in mice compared to [^68Ga]Ga-PSMA-11” (EJNMMI Radiopharmacy and Chemistry, 2024).
Several values for one entry are separate records, joined by “and”; a condition that tells them apart may be missing. Equal values may be shown once. Read-outs that look alike come from different tables or passages of the source. Numbered stars: 1 amine (or outer) side, 2 acyl side, 3 side chain; on linkers, the order of the positions; unused ones are H or OH. Peptide text beside a SMILES is read from it. * marks the point of attachment. X1 = O=C(O)CN1CCN(CC(=O)O)CC(Cc2ccc(NC(=S)*)cc2)N(CC(=O)O)CC1; DOTA = O=C(O)CN1CCN(CC(=O)O)CCN(CC(=O)*)CCN(CC(=O)O)CC1; γGlu = O=C(O)[CH](CCC(=O)[*:2])N[*:1]; CO = O=C([*:1])[*:2]; Ahx = NCCCCCC(=O)O

Assays:
[1] = assessment of stability (radiolysis) by radio-HPLC; format: physicochemical; conditions: for degradation on radio-HPLC after Ga-68 labeling without radioprotectant: aqueous sodium acetate buffer
Procedure: The compound in Figure 7 was not further developed as a potential theranostic agent since the need for a radioprotectant with Ga-68 labeling indicated potentially significant instability with high dose beta and alpha emitters.
Figure 8. Radio-HPLC trace of the compound in Figure 7 seventy minutes after labeling with Ga-68. The labeling reaction consisted of 2 μL of the compound (0.5mg/mL), 40 μL of NaOAc Buffer B, 5 μL ascorbic acid (100mg/mL) and 0.2mL of Eckert & Ziegler GalliaPharm Generator eluate. Buffer B composition is stated above. The HPLC gradient used was 5%-95%B in 15 minutes where solvent B is acetonitrile and solvent A is water with 0.1% formic acid. Column: Phenomenex Synergi Hydro-RP 80A 150x4.6mm 4 micrometer column (Phenomenex, Torrance, CA).
Figure 10. Radio-HPLC trace of [^68Ga]Ga-JB-1498 immediately after radiolabeling. The small signal at the solvent front is a very small amount of [^68Ga]GaCl3. The labeling reaction contained 2 μL of JB1498 (0.5mg/mL), 40 μL of NaOAc Buffer B and 0.2mL of Eckert & Ziegler GalliaPharm Generator eluate. Buffer B composition is stated above. The HPLC gradient used was 5%-95%B in 15 minutes where solvent B is acetonitrile and solvent A is water with 0.1% formic acid. Column: Waters (Milford, MA) Symmetry C18, 5μm, 4.6 x 150 mm column.

GCP-II = target: T1, GCP-II (Homo sapiens, UniProt Q04609); test: fluorescent enzymatic inhibition assay (competitive binding assay; NAAG hydrolysis by PC3-PIP membranes, Amplex Red glutamic acid readout); format: biochemical; conditions: upper limit set from the EC50; read-out: upper limit of Ki to PSMA
T1 construct: expressed in transfected cells; host or cells: PC3-PIP cells: washed membrane preparation after freeze-thaw cycles, 10 µg per well
Procedure: Binding affinity of JB-1498 toward GCP-II was determined using fluorescent enzymatic inhibition assay (Kozikowski et al. [2004]) as detailed in the Additional file 1.
PC3-PIP PSMA expressing cells were grown to confluency, harvested in 50mM Tris-HCl, pH 7.5 and subjected to 4 freezing and thawing cycles. Cell membranes were washed three times by centrifugation at 12,000g or higher. The cell membrane mixture was diluted to a concentration of 50 mg/mL in 50mM Tris-HCl, pH 7.5 (based on wet weight of the solid after centrifugation) and stored in a -80°C freezer until ready to use.
The assays were conducted on 96-well plates. […] Then the glutamic acid concentration was measured with Amplex Red glutamic acid assay kit (Invitrogen-Molecular Probes, now part of Thermo Fisher Scientific, Waltham, MA)) using a fluorescent plate reader (excitation at 530nm, measuring emission at 590nm). The fluorescence signals at 590nm were then normalized and normalized fluorescence was plotted against the Log concentration of JB1498 ligand (Figure 1). EC50 was determined using the equation: Fluorescence = baseline + (max fluorescence – baseline) […]. Microsoft Excel and KaleidaGraph (Synergy Software, Reading, PA) were used for data processing and graphing.

[2] = high molar activity biodistribution study in non-tumor-bearing NSG mice; format: in vivo; conditions: 1 hour after injection, high specific activity 59 GBq/μmol
Procedure: For the high molar activity biodistribution and imaging study, a fresh 1.85 GBq (50mCi) GalliaPharm Gallium-68 generator from Eckert & Ziegler (Berlin, Germany) was used. Radiolabeling of JB-1498 with [^68Ga]GaCl3 was performed in aqueous sodium acetate buffer at pH 4–5 and 98 °C for 10 min. The reaction product was diluted with water, loaded onto an Oasis HLB cartridge, washed with water, and eluted with 2:1 PBS:EtOH as detailed in the Additional file 1. The fractions with highest radioactivity were diluted with saline for injection in mice. Please refer to Additional file 1: Figs. 4 and Fig. 5 for HPLC traces of the products prior to and after solid phase extraction. The molar activity of the purified product was estimated to be 59 GBq/μmol (1600 Ci/mmol) at the time of first injection. [^68Ga]Ga-PSMA-11 was produced concurrently by incubating [^68Ga]GaCl3 and PSMA-11 precursor in sodium acetate buffer at pH 4–5 at room temperature for 10 min. Please refer to Additional file 1: Fig. 6 for HPLC trace of the product. The molar activity of the product was estimated to be 48 GBq/μmol (1300 Ci/mmol) at the time of first injection.
For the high molar activity biodistribution study aimed at maximizing salivary gland uptake, 3 male NSG mice without tumor were injected with 100μL of the [^68Ga]Ga-JB-1498 solution under anesthesia via retro-orbital injection per the above-described protocol. The dose injected was 1.31 ± 0.26 MBq.

[3] = micro-PET imaging in non-tumor-bearing NSG mice; format: in vivo; conditions: for course of activity in salivary glands and kidneys, dynamic micro-PET: during the first hour
Procedure: For the micro-PET imaging study, high molar activity [^68Ga]Ga-JB-1498 and [^68Ga]Ga-PSMA-11 were administered to non-tumor bearing NSG mice via tail vein injection. The dose injected was 5.3MBq of [^68Ga]Ga-PSMA-11 and 4.4 MBq of [^68Ga]Ga-JB-1498. Imaging was performed on a nanoScan PET/CT instrument (Mediso USA, Arlington, Virginia). List mode PET acquisition was performed for 45 min starting 25 min post-injection. CT was performed for PET attenuation correction and anatomic localization.

[4] = test system: PC3-PIP PSMA-expressing cell line; test: initial biodistribution study, low molar activity, PC3-PIP tumor-bearing NSG mice; format: in vivo; conditions: 1 hour after injection, specific activity below 7.4 GBq/μmol; for Biodistribution, Tumor: PC3-PIP PSMA+ tumor, NSG mice
Procedure: Radiolabeling of JB-1498 for the initial biodistribution study was performed using [^68Ga]GaCl3 from a spent ^68Ge/^68Ga generator from Isotopen Technologies Garching (Garching, Germany, currently ITM). JB-1498 with [^68Ga]GaCl3 was heated in aqueous sodium acetate buffer at pH 4–5 and 97 C for 7 min. The reaction product was HPLC-purified for the biodistribution study as detailed in the Additional file 1. The molar activity of the purified product was less than 7.4 GBq/μmol (200 Ci/mmol) at the conclusion of synthesis.
For the initial biodistribution study in tumor bearing mice, 3 male 10 week-old NSG mice (NOD.Cg-Prkdc^scidIl2rg^tm1Wjl/SzJ) were inoculated subcutaneously with 4 million cells of PC3-PIP PSMA-expressing cell line. Mice were housed in a specific pathogen free, temperature- and humidity-controlled environment, in standard micro-isolator top cages with ad libitum access to chow. Biodistribution studies were conducted when the long axis of the tumor exceeded 1 cm. Each mouse was injected with 100 μL of the [^68Ga]Ga-JB-1498 solution under isoflurane anesthesia via retro-orbital injection in the right eye and euthanized 1 h after injection. Major organs (including the left salivary glands) were dissected for radioactivity quantification. The dose injected was 0.74 ± 0.27 MBq.

LNCaP cell line = test system: LNCaP cell line; parameters: method as in Rousseau et al. [2018]; conditions: NSG mice, one hour after injection, ref Rousseau et al. [2018], cited from earlier work
[5] = test system: PSMA-expressing metastatic prostate cancer; parameters: method as in Sartor et al. [2021]; conditions: 7.4 GBq (200 mCi) regimen; ref Sartor et al. [2021]; cited from earlier work
[6] = N=3, listed as [^68Ga]Ga-JB1498
[7] = LNCaP tumor model, listed as [^68Ga]Ga-PSMA 11

T1 sequence (Q04609 whole entry): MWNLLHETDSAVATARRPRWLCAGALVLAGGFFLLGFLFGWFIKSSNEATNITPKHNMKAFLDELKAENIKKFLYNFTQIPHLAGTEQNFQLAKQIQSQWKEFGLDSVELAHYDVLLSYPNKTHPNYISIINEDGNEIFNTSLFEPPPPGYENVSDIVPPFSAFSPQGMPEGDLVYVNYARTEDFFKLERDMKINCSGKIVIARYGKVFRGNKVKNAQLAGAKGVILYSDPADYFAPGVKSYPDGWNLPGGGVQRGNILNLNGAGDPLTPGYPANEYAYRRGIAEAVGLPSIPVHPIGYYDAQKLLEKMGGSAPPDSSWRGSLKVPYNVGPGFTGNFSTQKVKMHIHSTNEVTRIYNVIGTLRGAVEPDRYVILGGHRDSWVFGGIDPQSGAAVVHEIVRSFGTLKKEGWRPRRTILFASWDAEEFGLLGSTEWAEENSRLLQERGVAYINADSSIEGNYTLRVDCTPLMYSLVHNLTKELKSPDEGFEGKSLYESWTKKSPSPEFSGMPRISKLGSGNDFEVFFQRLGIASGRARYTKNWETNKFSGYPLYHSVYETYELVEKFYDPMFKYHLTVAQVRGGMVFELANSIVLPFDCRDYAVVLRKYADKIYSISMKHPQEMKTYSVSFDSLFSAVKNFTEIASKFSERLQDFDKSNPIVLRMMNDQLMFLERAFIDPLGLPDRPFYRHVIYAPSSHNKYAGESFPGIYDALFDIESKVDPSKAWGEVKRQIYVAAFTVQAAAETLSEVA

NC(=O)C(CCCCNC(=S)Nc1ccc(CC2CN(CC(=O)O)CCN(CC(=O)O)CCN2CC(=O)O)cc1)NC(=O)C(Cc1ccc(O)cc1)NC(=O)C(CCC(=O)O)NC(=O)C(CCC(=O)O)NC(=O)C(CCC(=O)O)NC(=O)CCCCCNC(=O)CCC(NC(=O)NC(CCC(=O)O)C(=O)O)C(=O)O (centres unmarked) (68Ga complex, metal not drawn) [compound in Figure 7] ({Glu-CO-γGlu-Ahx}-EEEYK(X1)-NH2; configuration not given here)
stability on radio-HPLC after Ga-68 labeling with radioprotectant ([1]; aqueous sodium acetate buffer with ascorbic acid): reasonable stability with minimal degradation | degradation on radio-HPLC after Ga-68 labeling without radioprotectant ([1]; no radioprotectant): multiple peaks in radio-HPLC | radiolysis on radio-HPLC two hours after radiolabeling ([1]; in the presence of ascorbic acid): some radiolysis

NC(=O)C(CCCCNC(=O)CN1CCN(CC(=O)O)CCN(CC(=O)O)CCN(CC(=O)O)CC1)NC(=O)C(Cc1ccc(O)cc1)NC(=O)C(CCC(=O)O)NC(=O)C(CCC(=O)O)NC(=O)C(CCC(=O)O)NC(=O)CCCCCNC(=O)CCC(NC(=O)NC(CCC(=O)O)C(=O)O)C(=O)O (centres unmarked) [JB-1498] ({Glu-CO-γGlu-Ahx}-EEEYK(DOTA)-NH2; configuration not given here)
Ki (GCP-II): < 0.3 nM

NC(=O)C(CCCCNC(=O)CN1CCN(CC(=O)O)CCN(CC(=O)O)CCN(CC(=O)O)CC1)NC(=O)C(Cc1ccc(O)cc1)NC(=O)C(CCC(=O)O)NC(=O)C(CCC(=O)O)NC(=O)C(CCC(=O)O)NC(=O)CCCCCNC(=O)CCC(NC(=O)NC(CCC(=O)O)C(=O)O)C(=O)O.[68Ga] (centres unmarked) [[^68Ga]Ga-JB-1498] ({Glu-CO-γGlu-Ahx}-EEEYK(DOTA)-NH2; configuration not given here)
degradation on radio-HPLC after Ga-68 labeling without radioprotectant ([1]; no radioprotectant): no significant degradation | radiolysis on radio-HPLC 2.5 hours after synthesis ([1]; no radioprotectant, compared to trace immediately after radiolabeling): no significant radiolysis | Biodistribution, Blood ([2]; N=3): 0.39%ID/gram of tissue | Biodistribution, Combined Salivary gland ([2]; N=3): 0.39%ID/gram of tissue | Biodistribution, Kidney ([2]; N=3): 10.12%ID/gram of tissue | Biodistribution, Liver ([2]; N=3): 0.68%ID/gram of tissue | Biodistribution, Lung ([2]; N=3): 0.66%ID/gram of tissue | Biodistribution, Spleen ([2]; N=3): 2.34%ID/gram of tissue | Biodistribution, parotid (Left) ([2]; N=3): 0.36%ID/gram of tissue | Biodistribution, submandibular (Left) ([2]; N=3): 0.42%ID/gram of tissue | Biodistribution, Combined Salivary gland [2, 6]: 0.39 ± 0.24 %ID/gram of tissue | Biodistribution, Kidney [2, 6]: 10.12 ± 1.73 %ID/gram of tissue | salivary gland (SG) and background activity on micro-PET compared to [68Ga]Ga-PSMA-11 ([3]; 1 h post injection, same SUV grayscale): very little | tracer excretion on micro-PET ([3]; 1 h post injection, most of injected tracer in the urinary bladder): rapid tracer excretion via the kidneys | salivary gland and kidney uptake on micro-PET images compared to [68Ga]Ga-PSMA-11 ([3]; 1 h post-injection, tail vein, non-tumor bearing NSG mice): much lower | course of activity in salivary glands and kidneys, dynamic micro-PET [3]: gradually decreasing | Biodistribution, Tumor [4]: 12.09%ID/gram of tissue and 10.49%ID/gram of tissue | Biodistribution, Tumor ([4]; listed as [^68Ga]Ga-JB1498): 12.09 ± 1.28 %ID/gram of tissue | Biodistribution, Blood ([4]; PSMA+ tumor-bearing NSG mice): 0.22%ID/gram of tissue | Biodistribution, Bone ([4]; PSMA+ tumor-bearing NSG mice): 0.11%ID/gram of tissue and 0.10%ID/gram of tissue | Biodistribution, Heart ([4]; PSMA+ tumor-bearing NSG mice): 0.12%ID/gram of tissue and 0.11%ID/gram of tissue | Biodistribution, Liver ([4]; PSMA+ tumor-bearing NSG mice): 0.20%ID/gram of tissue and 0.18%ID/gram of tissue | Biodistribution, Lung ([4]; PSMA+ tumor-bearing NSG mice): 0.24%ID/gram of tissue and 0.21%ID/gram of tissue | Biodistribution, Muscle ([4]; PSMA+ tumor-bearing NSG mice): 0.22%ID/gram of tissue and 0.19%ID/gram of tissue | Biodistribution, Salivary gland ([4]; PSMA+ tumor-bearing NSG mice): 0.13 ± 0.01 %ID/gram of tissue and 0.13%ID/gram of tissue and 0.11%ID/gram of tissue | Biodistribution, Spleen ([4]; PSMA+ tumor-bearing NSG mice, 2 splenic samples): 0.31%ID/gram of tissue and 0.27%ID/gram of tissue | Biodistribution, Liver ([4]; PSMA+ tumor-bearing NSG mice, listed as [^68Ga]Ga-JB1498): 0.20 ± 0.09 %ID/gram of tissue | Biodistribution, Kidney ([4]; PSMA+ tumor-bearing NSG mice, single sample of left kidney): 12.98%ID/gram of tissue

O=C([O-])CN(CCN(CC(=O)[O-])Cc1cc(CCC(=O)NCCCCCC(=O)NCCCC[C@H](NC(=O)N[C@@H](CCC(=O)O)C(=O)O)C(=O)O)ccc1[O-])Cc1cc(CCC(=O)O)ccc1[O-].[68Ga+3].[OH3+] [[^68Ga]Ga-PSMA-11]
Biodistribution, Blood (LNCaP cell line; LNCaP tumor model): 0.31%ID/gram of tissue | Biodistribution, Kidney (LNCaP cell line; LNCaP tumor model): 182.0 ± 33.5 %ID/gram of tissue | Biodistribution, Liver (LNCaP cell line; LNCaP tumor model): 0.44%ID/gram of tissue | Biodistribution, Muscle (LNCaP cell line; LNCaP tumor model): 0.54%ID/gram of tissue | Biodistribution, Salivary gland (LNCaP cell line; LNCaP tumor model): 10.00 ± 2.52 %ID/gram of tissue | Biodistribution, Spleen (LNCaP cell line; LNCaP tumor model): 22.20%ID/gram of tissue | Biodistribution, Kidney (LNCaP cell line; [7]): 182.00%ID/gram of tissue | Biodistribution, Salivary gland (LNCaP cell line; [7]): 10.00%ID/gram of tissue | Biodistribution, Tumor (LNCaP cell line; LNCaP tumor): 8.67%ID/gram of tissue | course of activity in salivary glands and kidneys, dynamic micro-PET [3]: gradually increasing

[^177Lu]Lu-PSMA-617
complete response [5]: 9% | partial response [5]: 42%
